{
  "source": "patent US20240343729A1",
  "about": "(priority 2021, published 2024)",
  "key": {"Human PDE10A2 [1]": {"target": "T1, Human PDE10A2 (Homo sapiens (Human), UniProt Q9Y233)", "T1 sequence (Q9Y233 267-1055)": "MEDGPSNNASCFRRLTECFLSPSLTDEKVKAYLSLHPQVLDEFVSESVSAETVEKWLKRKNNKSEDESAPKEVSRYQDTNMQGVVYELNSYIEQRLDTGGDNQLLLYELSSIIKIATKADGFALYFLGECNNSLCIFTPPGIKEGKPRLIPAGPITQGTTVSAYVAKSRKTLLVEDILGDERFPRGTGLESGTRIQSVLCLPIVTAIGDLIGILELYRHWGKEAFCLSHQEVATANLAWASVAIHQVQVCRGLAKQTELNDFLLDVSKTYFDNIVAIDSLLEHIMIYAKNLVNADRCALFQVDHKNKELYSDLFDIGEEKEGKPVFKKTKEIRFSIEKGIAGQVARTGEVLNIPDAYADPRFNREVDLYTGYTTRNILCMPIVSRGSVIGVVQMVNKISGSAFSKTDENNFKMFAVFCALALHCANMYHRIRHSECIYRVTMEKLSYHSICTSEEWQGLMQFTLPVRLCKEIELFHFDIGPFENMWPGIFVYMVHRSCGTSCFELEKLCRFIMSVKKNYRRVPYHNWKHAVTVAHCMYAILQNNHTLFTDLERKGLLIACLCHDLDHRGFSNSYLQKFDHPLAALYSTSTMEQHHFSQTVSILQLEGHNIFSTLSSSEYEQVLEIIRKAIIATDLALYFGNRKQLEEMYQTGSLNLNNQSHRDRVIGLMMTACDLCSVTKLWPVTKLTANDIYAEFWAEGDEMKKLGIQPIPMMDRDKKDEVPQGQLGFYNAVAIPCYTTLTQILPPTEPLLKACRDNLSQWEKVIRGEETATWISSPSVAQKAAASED", "assay": "biochemical", "format": "biochemical", "details": "human PDE10A2 0.25 nM, cGMP 3 μM", "method": "Semi Log compound dilutions starting at a final concentration of 50 μM were dispensed into a black 384 well plate alongside, DMSO and an Inhibited control using the Echo Acoustic dispenser. […] Data was analysed using a 4-parameter fit."}, "Human PDE10A2 [2]": {"target": "T1, Human PDE10A2", "assay": "cell-based", "details": "Forskolin 10 μM; read-out: cAMP HTRF Assay in HEK 293 rhPDE10A2 cell line (pIC50) (converted)", "method": "Semi log compound dilutions starting at a final concentration of 10 μM were dispensed into a white 384 well plate, alongside DMSO and an Inhibited control using the Tecan D300e digital dispenser. HEK 293 cells overexpressing recombinant human PDE10A2 were seeded on top of the compounds at 2500 cells/well in a volume 5 μL/well. The plate was incubated at room temperature for 60 minutes. To induce endogenous cAMP, 5 μL/well of Forskolin at a final assay concentration of 10 μM was added to the plate. The plate was incubated at room temperature for a further 45 minutes. cAMP HTRF detection reagents were added, and the plate was incubated for 60 minutes at room temperature. […] Data was analysed using a 4-parameter fit."}, "[3]": {"system": "isolated human neutrophil", "assay": "In vitro assay of IL-8 neutrophil activation", "format": "cell-based"}, "[4]": {"system": "inflamed colonic mucosa from Crohn's Disease patients", "assay": "Ex-vivo culture of colon biopsies from Crohn's disease patients, cytokine release (Protocol 1)", "format": "cell-based, human", "details": "0.1 uM; 2 independent CD patient biopsies; compared to DMSO vehicle", "method": "In addition, we tested the effect of selective PDE10A inhibition using 0.1 uM PF-2545920 on inflamed colonic mucosa from Crohn's Disease patients taken during routine endoscopy (Protocol 1).\n(§1) Biopsy tissue was obtained from inflamed colonic mucosa from ulcerative colitis or Crohn's disease patients during routine endoscopy. Ex-vivo biopsy cultures for the analysis of inflammatory cytokine biomarkers were run as previously described (Vossenksmper A. et al. A CD3-specific antibody reduces cytokine production and alters phosphoprotein profiles in intestinal tissues from patients with inflammatory bowel disease. Gastroenterology, 147, 172-183 (2014)). Biopsies were incubated in organ culture for 24 h with the addition of positive control compounds, or specific PDE10A inhibitors. Supernatants collected at the end of the experiment were snap-frozen and stored at −70° C. For the measurement of cytokines, the frozen culture supernatants were thawed and analysed for levels of the inflammatory cytokines using Luminex cytokine assay kits (R&D Systems) and an R&D Systems MAGPIX® analyser. Mean values±SDs were calculated for the levels of spontaneous cytokine production measured in biopsy culture supernatants from each treatment group."}, "other PDE family members": {"system": "other PDE family members", "details": "literature value; read-out: IC50s for other PDE family members; cited from earlier work"}, "[5]": {"system": "inflamed colonic mucosa from pharmacotherapy treatment-refractory ulcerative colitis patients", "assay": "Ex-vivo culture of resected colon tissue from treatment-refractory ulcerative colitis patients, TNFα release (Protocol 2)", "format": "cell-based, human", "details": "1 μM; two UC patients; SEB present; about 18 hours; compared to DMSO vehicle"}, "[6]": {"system": "inflamed colonic mucosa from ulcerative colitis patients", "assay": "Ex-vivo culture of colon biopsies from ulcerative colitis patients, cytokine release (Protocol 1)", "format": "cell-based, human", "details": "UC colon biopsies, two patients; PF-02545920 0.1 μM and 1 μM, TAK-063 1 uM; 24 h; compared to DMSO vehicle", "method": "The effect of selective PDE10A inhibition was tested on inflamed colonic mucosa from ulcerative colitis patients taken during routine endoscopy (Protocol 1 detailed below). These samples retain a disease phenotype in ex-vivo culture, secrete high basal levels of inflammatory cytokines, and represent a highly relevant and translational disease model. The effect of the PDE10A inhibitors on levels of the inflammatory cytokines IL-6 and IL-8 released from these tissue samples were measured. Both IL-6 and IL-8 are key regulators in ulcerative colitis pathology and their levels correlate with disease severity (Waldner M J et al. Master regulator of intestinal disease: IL-6 in chronic inflammation and cancer development. Semin Immunol. 26(1), 75-9 (2014); Bernardo D et al. IL-6 promotes immune responses in human ulcerative colitis and induces a skin-homing phenotype in the dendritic cells and T-cells they stimulate. Eur J Immunol. 42(5), 1337-53 (2012); Pearl D S, Cytokine mucosal expression in ulcerative colitis, the relationship between cytokine release and disease activity. J Crohns Colitis. 7(6), 481-9 (2013)).\nThese colon biopsies retain an inflammatory phenotype and secrete high levels of inflammatory cytokines in ex-vivo culture.\nas §1, with “Ex-vivo biopsy cultures for the analysis of inflammatory cytokine biomarkers were run as previously described (Vossenksmper A. et al. A CD3-specific antibody reduces cytokine production and alters phosphoprotein profiles in intestinal tissues from patients with inflammatory bowel disease. Gastroenterology, 147, 172-183 (2014)).” left out"}},
  "data": [
    {"compound": "CC(C)n1ncc2c(N3C[C@H]4COC[C@H]4C3)nc(C#Cc3nc(-c4ccccc4)cn3C)nc21", "note": "[Example 18, (3aR,6aS)-5-(1-isoPropyl-6-((1-methyl-4-phenyl-1H-imidazol-2-yl)ethynyl)-1H-pyrazolo[3,4-d]pyrimidin-4-yl)hexahydro-1H-furo[3,4-c]pyrrole]", "values": [
      {"measurement": "PDE10A2 Phosphate Sensor Enzyme Assay (pIC50)", "setting": "Human PDE10A2 [1]", "value": 9.99},
      {"measurement": "IC50", "setting": "Human PDE10A2 [2]", "value": 0.617, "unit": "nM"}
    ]},
    {"compound": "Cn1cc(-c2ccccc2)nc1C#Cc1nc(N2C[C@H]3COC[C@H]3C2)c2cnn(C3COC3)c2n1", "note": "[Example 19, (3aR,6aS)-5-(6-((1-Methyl-4-phenyl-1H-imidazol-2-yl)ethynyl)-1-(oxetan-3-yl)-1H-pyrazolo[3,4-d]pyrimidin-4-yl)hexahydro-1H-furo[3,4-c]pyrrole]", "values": [
      {"measurement": "PDE10A2 Phosphate Sensor Enzyme Assay (pIC50)", "setting": "Human PDE10A2 [1]", "value": 9.41},
      {"measurement": "IC50", "setting": "Human PDE10A2 [2]", "value": 11.2, "unit": "nM"}
    ]},
    {"compound": "Cn1cc(-c2ccccc2)nc1C#Cc1nc(N2C[C@H]3COC[C@H]3C2)c2ncn(C)c2n1", "note": "[Example 20, (3aR,6aS)-5-(9-Methyl-2-((1-methyl-4-phenyl-1H-imidazol-2-yl)ethynyl)-9H-purin-6-yl)hexahydro-1H-furo[3,4-c]pyrrole]", "values": [
      {"measurement": "PDE10A2 Phosphate Sensor Enzyme Assay (pIC50)", "setting": "Human PDE10A2 [1]", "value": 9.53},
      {"measurement": "IC50", "setting": "Human PDE10A2 [2]", "value": 8.71, "unit": "nM"}
    ]},
    {"compound": "C[C@@H]1COCCN1c1nc(C#Cc2nc(-c3ccccc3)cn2C)nc2c1ncn2C", "note": "[Example 21, (R)-3-Methyl-4-(9-methyl-2-((1-methyl-4-phenyl-1H-imidazol-2-yl)ethynyl)-9H-purin-6-yl)morpholine]", "values": [
      {"measurement": "PDE10A2 Phosphate Sensor Enzyme Assay (pIC50)", "setting": "Human PDE10A2 [1]", "value": 10.30},
      {"measurement": "IC50", "setting": "Human PDE10A2 [2]", "value": 0.417, "unit": "nM"}
    ]},
    {"compound": "Cn1cc(-c2ccccc2)nc1C#Cc1nc(N2C[C@H]3COC[C@H]3C2)c2cnn(C)c2n1", "note": "[Example 23, (3aR,6aS)-5-(1-Methyl-6-((1-methyl-4-phenyl-1H-imidazol-2-yl)ethynyl)-1H-pyrazolo[3,4-d]pyrimidin-4-yl)hexahydro-1H-furo[3,4-c]pyrrole]", "values": [
      {"measurement": "PDE10A2 Phosphate Sensor Enzyme Assay (pIC50)", "setting": "Human PDE10A2 [1]", "value": 10.40},
      {"measurement": "IC50", "setting": "Human PDE10A2 [2]", "value": 0.245, "unit": "nM"}
    ]},
    {"compound": "Cn1cc(-c2ccccc2)nc1C#Cc1nc(N2CCS(=N)(=O)CC2)c2cnn(C)c2n1", "note": "[Example 24, 1-Imino-4-(1-methyl-6-((1-methyl-4-phenyl-1H-imidazol-2-yl)ethynyl)-1H-pyrazolo[3,4-d]pyrimidin-4-yl)-1l6-thiomorpholine 1-oxide]", "values": [
      {"measurement": "PDE10A2 Phosphate Sensor Enzyme Assay (pIC50)", "setting": "Human PDE10A2 [1]", "value": 10.10},
      {"measurement": "IC50", "setting": "Human PDE10A2 [2]", "value": 1.2, "unit": "nM"}
    ]},
    {"compound": "C(#Cc1nc(-c2ccccc2)c[nH]1)c1nc(N2C[C@H]3COC[C@H]3C2)c2cnn(C3COC3)c2n1", "note": "[Example 27, (3aR,6aS)-5-(1-(Oxetan-3-yl)-6-((4-phenyl-1H-imidazol-2-yl)ethynyl)-1H-pyrazolo[3,4-d]pyrimidin-4-yl)hexahydro-1H-furo[3,4-c]pyrrole]", "values": [
      {"measurement": "PDE10A2 Phosphate Sensor Enzyme Assay (pIC50)", "setting": "Human PDE10A2 [1]", "value": 9.49},
      {"measurement": "IC50", "setting": "Human PDE10A2 [2]", "value": 32.4, "unit": "nM"}
    ]},
    {"compound": "Cn1cnc2c(N3C[C@H]4COC[C@H]4C3)nc(C#Cc3nc(-c4ccccc4)c[nH]3)nc21", "note": "[Example 28, (3aR,6aS)-5-(9-Methyl-2-((4-phenyl-1H-imidazol-2-yl)ethynyl)-9H-purin-6-yl)hexahydro-1H-furo[3,4-c]pyrrole]", "values": [
      {"measurement": "PDE10A2 Phosphate Sensor Enzyme Assay (pIC50)", "setting": "Human PDE10A2 [1]", "value": 9.34},
      {"measurement": "IC50", "setting": "Human PDE10A2 [2]", "value": 33.9, "unit": "nM"}
    ]},
    {"compound": "C[C@@H]1COCCN1c1nc(C#Cc2nc(-c3ccccc3)c[nH]2)nc2c1ncn2C", "note": "[Example 29, (R)-3-Methyl-4-(9-methyl-2-((4-phenyl-1H-imidazol-2-yl)ethynyl)-9H-purin-6-yl)morpholine]", "values": [
      {"measurement": "PDE10A2 Phosphate Sensor Enzyme Assay (pIC50)", "setting": "Human PDE10A2 [1]", "value": 9.92},
      {"measurement": "IC50", "setting": "Human PDE10A2 [2]", "value": 3.47, "unit": "nM"}
    ]},
    {"compound": "C[C@H]1COCCN1c1nc(C#Cc2nc(-c3ccccc3)c[nH]2)nc2c1ncn2C", "note": "[Example 30, (S)-3-Methyl-4-(9-methyl-2-((4-phenyl-1H-imidazol-2-yl)ethynyl)-9H-purin-6-yl)morpholine]", "values": [
      {"measurement": "PDE10A2 Phosphate Sensor Enzyme Assay (pIC50)", "setting": "Human PDE10A2 [1]", "value": 8.97},
      {"measurement": "IC50", "setting": "Human PDE10A2 [2]", "value": "> 1000", "unit": "nM"}
    ]},
    {"compound": "Cn1cnc2c(N3C[C@H]4COC[C@H]4C3)nc(C#Cc3nc(-c4cccnc4)c[nH]3)nc21", "note": "[Example 31, (3aR,6aS)-5-(9-Methyl-2-((4-(pyridin-3-yl)-1H-imidazol-2-yl)ethynyl)-9H-purin-6-yl)hexahydro-1H-furo[3,4-c]pyrrole]", "values": [
      {"measurement": "PDE10A2 Phosphate Sensor Enzyme Assay (pIC50)", "setting": "Human PDE10A2 [1]", "value": 8.95},
      {"measurement": "IC50", "setting": "Human PDE10A2 [2]", "value": 3.98, "unit": "nM"}
    ]},
    {"compound": "C[C@@H]1COCCN1c1nc(C#Cc2nc(-c3cccnc3)c[nH]2)nc2c1ncn2C", "note": "[Example 32, (R)-3-Methyl-4-(9-methyl-2-((4-(pyridin-3-yl)-1H-imidazol-2-yl)ethynyl)-9H-purin-6-yl)morpholine]", "values": [
      {"measurement": "PDE10A2 Phosphate Sensor Enzyme Assay (pIC50)", "setting": "Human PDE10A2 [1]", "value": 9.90},
      {"measurement": "IC50", "setting": "Human PDE10A2 [2]", "value": 2.34, "unit": "nM"}
    ]},
    {"compound": "C[C@H]1COCCN1c1nc(C#Cc2nc(-c3cccnc3)c[nH]2)nc2c1ncn2C", "note": "[Example 33, (S)-3-Methyl-4-(9-methyl-2-((4-(pyridin-3-yl)-1H-imidazol-2-yl)ethynyl)-9H-purin-6-yl)morpholine]", "values": [
      {"measurement": "PDE10A2 Phosphate Sensor Enzyme Assay (pIC50)", "setting": "Human PDE10A2 [1]", "value": 8.68},
      {"measurement": "IC50", "setting": "Human PDE10A2 [2]", "value": 17.4, "unit": "nM"}
    ]},
    {"compound": "Cn1cc(-c2ccncc2)c(-c2ccc(OCc3ccc4ccccc4n3)cc2)n1", "note": "[PF-02545920]", "values": [
      {"measurement": "IL-8 induced neutrophil activation", "setting": "[3]", "value": "dose dependently inhibited"},
      {"measurement": "secreted levels of IL-6", "setting": "[4]", "value": "significantly reduced"},
      {"measurement": "secreted levels of IL-8", "setting": "[4]", "value": "significantly reduced"},
      {"measurement": "IC50", "setting": "other PDE family members", "value": "> 1000", "unit": "nM"},
      {"measurement": "secreted levels of TNFα", "setting": "[5]", "value": "significantly reduced"},
      {"measurement": "secreted levels of IL-6", "setting": "[6]", "value": "significantly reduced"},
      {"measurement": "secreted levels of IL-8", "setting": "[6]", "value": "significantly reduced"}
    ]},
    {"compound": "COc1cn(-c2ccc(-n3cccn3)cc2F)nc(-c2ccnn2-c2ccccc2)c1=O", "note": "[TAK-063, 1-[2-fluoro-4-(1H-pyrazol-1-yl)phenyl]-5-methoxy-3-(1-phenyl-1H-pyrazol-5-yl)pyridazin-4(1H)-one]", "values": [
      {"measurement": "IC50", "setting": "other PDE family members", "value": "> 5000", "unit": "nM"},
      {"measurement": "secreted levels of IL-6", "setting": "[6]", "value": "significantly reduced"},
      {"measurement": "secreted levels of IL-8", "setting": "[6]", "value": "significantly reduced"}
    ]}
  ]
}
